Results: US9828381B2, “Substituted pyrazolopyrimidines and method of use” (AbbVie Deutschland GmbH & Co. KG, priority 2015, dated 2017)

These compounds were tested against GABA-B receptor (Rattus norvegicus (Rat), UniProt O88871+Q9Z0U4) (assay: [35S]GTPgS binding assay, rat cortical membranes, in presence of EC25 GABA). Conditions: rat brain cortex membranes; in presence of 1 μM GABA (EC25); positive allosteric modulation.
Format: biochemical
Method: Preparation of Rat Brain Membranes for Native Receptor Assays
Membranes from rat brain cortex were prepared as described in detail by Olpe et al. and stored at concentrations of 1.66 mg/mL protein at −80° C. until required. (Olpe, H.-R, et al. Eur J Pharmacol 1990; 187: 27-38).
[^35S] GTPgS Binding Assay
The composition of the assay mixtures [in a final volume of 200 μL in 96-well U-bottom plates (Greiner) was as follows: 50 mM Tris-HCl buffer, pH 7.7, 10 mM MgCl2, 0.2 mM EGTA, 2 mM CaCl2, 100 mM NaCl, 20 µM guanosine 5′-diphosphate (Sigma), 0.3 nM [^35S]GTPgS (1250 Ci/mmol (PerkinElmer)), and the test compounds at increasing concentrations (from 10 nM up to […]), […] of rat cortical membranes, and a concentration of […], that has been observed in previous experiments to correspond to the EC25, a concentration that gives 25% of the maximal response of GABA. The samples were incubated at room temperature for 60 minutes on a shaker. The incubation was stopped by rapid vacuum filtration over glass-fiber filter plates (UniFilter-96 well, GF/B membrane plates, PerkinElmer) using a 96-well plate harvester (TOMTEK© Harvester). The UniFilter plate was washed five times with ice-cold wash buffer (50 mM Tris-HCl buffer, pH 7.7, 10 mM MgCl2, and 100 mM NaCl. After filtration the plate was dried for 90 minutes at 55° C. The plates were closed on the bottom with black sealing membranes, and liquid scintillation cocktail (35 μL, Betaplate Scint, PerkinElmer) was added to each well. After sealing the top of the plate, an additional incubation step of 90 minutes at room temperature followed before measuring the plate. The amount of membrane-bound [^35S]GTPgS was measured using a 96-well plate reader (Microbeta®, PerkinElmer). Nonspecific binding was measured in the presence of unlabeled 10 μM of GTPgS (Millipore) and without GABA. Basal binding was measured in the absence of 1 μM GABA, and maximal binding was measured in the presence of GABA using 1 mM GABA concentrations.
Data analysis. The concentration-response curves of compounds of the present disclosure in the presence of EC25 of GABA-B receptor agonist were generated using the GraphPad Prism® program (GraphPad Software, San Diego, Calif.). Data was normalized using basal binding as 0% and maximal binding as 100%. The curves were fitted by nonlinear regression allowing determination of EC50 values from sigmoidal dose-response curves. Each curve was performed using triplicate sample per date point and 10 concentrations.

Chain of GABA-B receptor (Q9Z0U4 17-960): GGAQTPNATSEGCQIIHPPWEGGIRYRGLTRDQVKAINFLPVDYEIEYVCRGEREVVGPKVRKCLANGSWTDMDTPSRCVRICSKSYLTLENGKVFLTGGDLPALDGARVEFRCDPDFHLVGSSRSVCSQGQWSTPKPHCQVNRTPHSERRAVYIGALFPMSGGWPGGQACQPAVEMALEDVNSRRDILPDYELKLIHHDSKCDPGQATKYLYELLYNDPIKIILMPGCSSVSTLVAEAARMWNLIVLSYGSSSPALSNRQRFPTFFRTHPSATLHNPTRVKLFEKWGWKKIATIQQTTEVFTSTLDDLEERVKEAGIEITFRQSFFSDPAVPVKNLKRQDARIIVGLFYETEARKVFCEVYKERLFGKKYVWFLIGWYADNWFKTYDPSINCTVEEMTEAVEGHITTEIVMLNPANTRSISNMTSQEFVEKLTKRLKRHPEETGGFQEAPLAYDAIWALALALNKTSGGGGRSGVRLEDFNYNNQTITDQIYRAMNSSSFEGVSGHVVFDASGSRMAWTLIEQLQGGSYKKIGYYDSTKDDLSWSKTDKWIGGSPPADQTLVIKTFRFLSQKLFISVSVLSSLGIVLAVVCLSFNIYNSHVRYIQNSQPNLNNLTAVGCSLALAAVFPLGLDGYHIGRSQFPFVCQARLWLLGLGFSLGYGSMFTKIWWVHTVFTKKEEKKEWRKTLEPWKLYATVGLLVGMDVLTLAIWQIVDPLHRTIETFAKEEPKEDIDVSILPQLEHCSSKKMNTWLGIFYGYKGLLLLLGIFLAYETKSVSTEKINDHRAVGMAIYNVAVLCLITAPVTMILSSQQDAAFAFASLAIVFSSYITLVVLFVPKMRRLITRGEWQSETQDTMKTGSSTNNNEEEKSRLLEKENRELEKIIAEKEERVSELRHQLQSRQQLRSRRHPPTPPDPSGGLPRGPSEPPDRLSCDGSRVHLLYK
Chain of GABA-B receptor (O88871 41-940): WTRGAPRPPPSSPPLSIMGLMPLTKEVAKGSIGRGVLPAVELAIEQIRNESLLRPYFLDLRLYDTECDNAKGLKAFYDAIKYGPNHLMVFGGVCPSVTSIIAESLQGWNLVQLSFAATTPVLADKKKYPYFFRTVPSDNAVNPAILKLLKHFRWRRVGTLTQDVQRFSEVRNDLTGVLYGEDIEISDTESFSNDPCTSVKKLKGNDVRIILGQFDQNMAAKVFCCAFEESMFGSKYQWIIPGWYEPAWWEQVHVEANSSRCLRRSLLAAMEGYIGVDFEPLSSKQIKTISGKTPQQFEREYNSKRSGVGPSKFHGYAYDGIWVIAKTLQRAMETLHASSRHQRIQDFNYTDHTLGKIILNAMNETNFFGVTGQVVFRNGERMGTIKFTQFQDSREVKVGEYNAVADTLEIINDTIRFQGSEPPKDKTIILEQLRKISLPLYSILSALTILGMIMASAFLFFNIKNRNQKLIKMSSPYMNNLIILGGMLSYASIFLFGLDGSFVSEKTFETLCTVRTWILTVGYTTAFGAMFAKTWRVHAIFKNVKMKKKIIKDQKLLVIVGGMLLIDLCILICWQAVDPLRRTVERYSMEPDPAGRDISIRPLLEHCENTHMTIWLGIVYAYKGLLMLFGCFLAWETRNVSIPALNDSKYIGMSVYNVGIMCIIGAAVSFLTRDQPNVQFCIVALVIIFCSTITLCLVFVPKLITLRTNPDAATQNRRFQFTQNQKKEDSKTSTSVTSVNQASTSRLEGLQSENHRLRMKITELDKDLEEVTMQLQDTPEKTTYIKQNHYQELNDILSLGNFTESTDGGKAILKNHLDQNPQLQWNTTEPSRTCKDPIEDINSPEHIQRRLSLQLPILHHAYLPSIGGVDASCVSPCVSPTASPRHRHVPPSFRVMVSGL

EC50	Structure (SMILES)
499 nM	Cc1cc(N[C@H]2C[C@@H](O)C2)n2nc(C(C)c3ccc(Cl)cc3)cc2n1 (relative stereo) [Example 2-18, cis-3-({2-[1-(4-chlorophenyl)ethyl]-5-methylpyrazolo[1,5-a]pyrimidin-7-yl}amino)cyclobutanol]
1310 nM	Cc1cc(N[C@H]2C[C@H](O)C2)n2nc(C(C)c3ccc(Cl)cc3)cc2n1 (relative stereo) [Example 2-19, trans-3-({2-[1-(4-chlorophenyl)ethyl]-5-methylpyrazolo[1,5-a]pyrimidin-7-yl}amino)cyclobutanol]
1400 nM	Cc1cc(N2CCCCC2CCO)n2nc(Cc3ccc(Cl)cc3)cc2n1 (centres unmarked) [Example 1-1, 2-{1-[2-(4-chlorobenzyl)-5-methylpyrazolo[1,5-a]pyrimidin-7-yl]piperidin-2-yl}ethanol]
1660 nM	Cc1cc(N2CCCCC2CO)n2nc(Cc3ccc(Cl)cc3)cc2n1 (centres unmarked) [Example 1-2, {1-[2-(4-chlorobenzyl)-5-methylpyrazolo[1,5-a]pyrimidin-7-yl]piperidin-2-yl}methanol]
2550 nM	Cc1cc(NC2(C)CC2)n2nc(Cc3ccc(Cl)cc3)cc2n1 [Example 1-3, 2-(4-chlorobenzyl)-5-methyl-N-(1-methylcyclopropyl)pyrazolo[1,5-a]pyrimidin-7-amine]
2890 nM	Cc1cc(N2CCCC(F)(F)C2)n2nc(Cc3ccc(Cl)cc3)cc2n1 [Example 1-4, 2-(4-chlorobenzyl)-7-(3,3-difluoropiperidin-1-yl)-5-methylpyrazolo[1,5-a]pyrimidine]
5930 nM	Cc1cc(N2CCC(O)C(F)(F)C2)n2nc(Cc3ccc(Cl)cc3)cc2n1 (centres unmarked) [Example 1-5, 1-[2-(4-chlorobenzyl)-5-methylpyrazolo[1,5-a]pyrimidin-7-yl]-3,3-difluoropiperidin-4-ol]
974 nM	Cc1cc(N2CCC[C@H](O)C2)n2nc(Cc3ccc(Cl)cc3)cc2n1 [Example 1-6, (3S)-1-[2-(4-chlorobenzyl)-5-methylpyrazolo[1,5-a]pyrimidin-7-yl]piperidin-3-ol]
1230 nM	Cc1cc(N2CCC[C@@H](O)C2)n2nc(Cc3ccc(Cl)cc3)cc2n1 [Example 1-7, (3R)-1-[2-(4-chlorobenzyl)-5-methylpyrazolo[1,5-a]pyrimidin-7-yl]piperidin-3-ol]
1300 nM	Cc1cc(N2CCC[C@H](CO)C2)n2nc(Cc3ccc(Cl)cc3)cc2n1 [Example 1-8, {(3S)-1-[2-(4-chlorobenzyl)-5-methylpyrazolo[1,5-a]pyrimidin-7-yl]piperidin-3-yl}methanol]
2570 nM	Cc1cc(N2CCCCC2)n2nc(Cc3ccc(Cl)cc3)cc2n1 [Example 1-9, 2-(4-chlorobenzyl)-5-methyl-7-(piperidin-1-yl)pyrazolo[1,5-a]pyrimidine]
> 10000 nM	Cc1cc(N2CCCCC2=O)n2nc(Cc3ccc(Cl)cc3)cc2n1 [Example 1-10, 1-[2-(4-chlorobenzyl)-5-methylpyrazolo[1,5-a]pyrimidin-7-yl]piperidin-2-one]
> 10000 nM	CC(=O)N[C@@H]1CCN(c2cc(C)nc3cc(Cc4ccc(Cl)cc4)nn23)C1 [Example 1-11, N-{(3R)-1-[2-(4-chlorobenzyl)-5-methylpyrazolo[1,5-a]pyrimidin-7-yl]pyrrolidin-3-yl}acetamide]
3970 nM	Cc1cc(N2CCCC2)n2nc(Cc3ccc(Cl)cc3)cc2n1 [Example 1-12, 2-(4-chlorobenzyl)-5-methyl-7-(pyrrolidin-1-yl)pyrazolo[1,5-a]pyrimidine]
> 10000 nM	Cc1cc(N2CCC2)n2nc(Cc3ccc(Cl)cc3)cc2n1 [Example 1-13, 7-(azetidin-1-yl)-2-(4-chlorobenzyl)-5-methylpyrazolo[1,5-a]pyrimidine]
1030 nM	Cc1cc(NC(C)(C)C)n2nc(Cc3ccc(Cl)cc3)cc2n1 [Example 1-14, N-tert-butyl-2-(4-chlorobenzyl)-5-methylpyrazolo[1,5-a]pyrimidin-7-amine]
1180 nM	Cc1cc(NC2(C(F)(F)F)CC2)n2nc(Cc3ccc(Cl)cc3)cc2n1 [Example 1-15, 2-(4-chlorobenzyl)-5-methyl-N-[1-(trifluoromethyl)cyclopropyl]pyrazolo[1,5-a]pyrimidin-7-amine]
> 10000 nM	Cc1cc(NCC(F)(F)F)n2nc(Cc3ccc(Cl)cc3)cc2n1 [Example 1-16, 2-(4-chlorobenzyl)-5-methyl-N-(2,2,2-trifluoroethyl)pyrazolo[1,5-a]pyrimidin-7-amine]
> 10000 nM	CC(=O)N[C@H]1CCN(c2cc(C)nc3cc(Cc4ccc(Cl)cc4)nn23)C1 [Example 1-17, N-{(3S)-1-[2-(4-chlorobenzyl)-5-methylpyrazolo[1,5-a]pyrimidin-7-yl]pyrrolidin-3-yl}acetamide]
2690 nM	Cc1cc(N[C@@H](C)C(F)(F)F)n2nc(Cc3ccc(Cl)cc3)cc2n1 [Example 1-18, 2-(4-chlorobenzyl)-5-methyl-N-[(2S)-1,1,1-trifluoropropan-2-yl]pyrazolo[1,5-a]pyrimidin-7-amine]
10000 nM	Cc1cc(N2CCCC(C(N)=O)C2)n2nc(Cc3ccc(Cl)cc3)cc2n1 (centres unmarked) [Example 1-19, 1-[2-(4-chlorobenzyl)-5-methylpyrazolo[1,5-a]pyrimidin-7-yl]piperidine-3-carboxamide]
2150 nM	Cc1cc(N[C@H](C)C(F)(F)F)n2nc(Cc3ccc(Cl)cc3)cc2n1 [Example 1-20, 2-(4-chlorobenzyl)-5-methyl-N-[(2R)-1,1,1-trifluoropropan-2-yl]pyrazolo[1,5-a]pyrimidin-7-amine]
1380 nM	Cc1cc(N2CCC[C@@H](CO)C2)n2nc(Cc3ccc(Cl)cc3)cc2n1 [Example 1-21, {(3R)-1-[2-(4-chlorobenzyl)-5-methylpyrazolo[1,5-a]pyrimidin-7-yl]piperidin-3-yl}methanol]
118 nM	Cc1cc(N2CCCCC2CCO)n2nc(C(C)c3ccc(Cl)cc3)cc2n1 (centres unmarked) [Example 2-1, 2-(1-{2-[1-(4-chlorophenyl)ethyl]-5-methylpyrazolo[1,5-a]pyrimidin-7-yl}piperidin-2-yl)ethanol]
435 nM	Cc1cc(NC2(C)CC2)n2nc(C(C)c3ccc(Cl)cc3)cc2n1 (centres unmarked) [Example 2-2, 2-[1-(4-chlorophenyl)ethyl]-5-methyl-N-(1-methylcyclopropyl)pyrazolo[1,5-a]pyrimidin-7-amine]
508 nM	Cc1cc(N2CCC(F)(F)C2)n2nc(C(C)c3ccc(Cl)cc3)cc2n1 (centres unmarked) [Example 2-3, 2-[1-(4-chlorophenyl)ethyl]-7-(3,3-difluoropyrrolidin-1-yl)-5-methylpyrazolo[1,5-a]pyrimidine]
128 nM	Cc1cc(N2CCC(F)CC2)n2nc(C(C)c3ccc(Cl)cc3)cc2n1 (centres unmarked) [Example 2-4, 2-[1-(4-chlorophenyl)ethyl]-7-(4-fluoropiperidin-1-yl)-5-methylpyrazolo[1,5-a]pyrimidine]
146 nM	Cc1cc(N2CCCCC2CO)n2nc(C(C)c3ccc(Cl)cc3)cc2n1 (centres unmarked) [Example 2-5, (1-{2-[1-(4-chlorophenyl)ethyl]-5-methylpyrazolo[1,5-a]pyrimidin-7-yl}piperidin-2-yl)methanol]
242 nM	Cc1cc(N2CCCC(F)C2)n2nc(C(C)c3ccc(Cl)cc3)cc2n1 (centres unmarked) [Example 2-6, 2-[1-(4-chlorophenyl)ethyl]-7-(3-fluoropiperidin-1-yl)-5-methylpyrazolo[1,5-a]pyrimidine]
